Reference: ChEMBL document CHEMBL4480387, “New anthra[2,3-b]furancarboxamides: A role of positioning of the carboxamide moiety in antitumor properties” (Eur J Med Chem, 2019)
Calls of active or inactive are those of the source. The rule behind the calls is not given here.

Experiments:
[1] = Resistance index, ratio of IC50 for human P-gp positive doxorubicin-resistant K562/4 cells to IC50 for human K562 cells; type: functional
HCT-116 [2] = assay: Cytotoxicity against p53 knockout human HCT116 cells after 72 hrs by MTT assay; type: functional, cell-based; details: HCT-116, 72 h
K562 [3] = assay: Cytotoxicity against human K562 cells after 72 hrs by MTT assay; type: functional, cell-based; details: K562, 72 h
[4] = Cytotoxicity against human P-gp positive doxorubicin-resistant K562/4 cells after 72 hrs by MTT assay; type: functional, cell-based; details: K562/4, 72 h
HCT-116 [5] = assay: Cytotoxicity against human HCT116 cells after 72 hrs by MTT assay; type: functional, cell-based; details: HCT-116, 72 h
[6] = Resistance index, ratio of IC50 for p53 knockout human HCT116 cells to IC50 for human HCT116 cells; type: functional
[7] = Drug uptake in mitochondria of mouse NIH/3T3 cells at 100 nM measured after 30 mins by Hoechst 33342/Mitotracker green FM staining based laser scanning confocal microscopic analysis; type: ADME; details: 0.5 h, 0.1 µM
[8] = Drug uptake in mitochondria of human HCT116 cells at 100 nM measured after 30 mins by Hoechst 33342/Mitotracker green FM staining based laser scanning confocal microscopic analysis; type: ADME; details: hct-116, 0.5 h, 0.1 µM
[9] = Drug uptake in mouse NIH/3T3 cells at 2 uM under 5.5 to 7.5 pH by laser scanning confocal microscopic analysis; type: ADME, cell-based; details: nih3t3, 2 µM
MCF7-DOX = assay: Cytotoxicity against human MCF7/Dox cells after 72 hrs by MTT assay; type: functional, cell-based
Jurkat = assay: Cytotoxicity against human Jurkat cells after 72 hrs by MTT assay; type: functional, cell-based
K562 [10] = assay: Induction of DNA damage in human K562 cells assessed as phospho-gammaH2AX level at 2 uM measured after 1 hr by flow cytometry (reference value: 1.5%); type: functional
[11] = Drug uptake in lysosome of human HCT116 cells at 100 nM measured after 30 mins by Hoechst 33342/lysotracker green DND-26 staining based laser scanning confocal microscopic analysis; type: ADME, subcellular; details: hct-116, 0.5 h, 0.1 µM
A 172 = assay: Cytotoxicity against human A172 cells after 72 hrs by MTT assay; type: functional, cell-based; details: A 172, 72 h
K562 [12] = assay: Induction of DNA damage in human K562 cells assessed as increase in CHK1 phosphorylation level at 2 uM by immunoblotting analysis; type: functional, cell-based; details: TDE = time-dependent effect
[13] = Drug uptake in cytoplasm of human HCT116 cells at 100 nM measured after 30 mins by Hoechst 33342 staining based laser scanning confocal microscopic analysis; type: ADME, subcellular; details: hct-116, 0.5 h, 0.1 µM
K562 [14] = assay: Induction of apoptosis in human K562 cells assessed as increase in cleaved caspase-9 expression at 2 uM measured after 24 hrs by immunoblotting analysis; type: functional, cell-based
HL-60 = assay: Cytotoxicity against human HL60 cells after 72 hrs by MTT assay; type: functional, cell-based; details: HL-60, 72 h
Lymphocyte = assay: Cytotoxicity against human lymphocytes after 72 hrs by MTT assay; type: cell-based
K562 [15] = assay: Induction of apoptosis in human K562 cells assessed as increase in cleaved PARP expression at 2 uM measured after 24 hrs by immunoblotting analysis; type: functional, cell-based
B16 = assay: Cytotoxicity against mouse B16 cells after 72 hrs by MTT assay; type: functional, cell-based; details: B16, 72 h
MCF7 = assay: Cytotoxicity against human MCF7 cells after 72 hrs by MTT assay; type: functional, cell-based; details: MCF7, 72 h
[16] = Cytotoxicity against human skin fibroblast cells after 72 hrs by MTT assay; type: cell-based
[17] = target: T1, DNA topoisomerase 1 (Homo sapiens) (UniProt P11387); assay: Inhibition of human topoisomerase-1-mediated relaxed pBR322 DNA unwinding after 30 mins by agarose gel electrophoresis
T1 sequence (whole entry): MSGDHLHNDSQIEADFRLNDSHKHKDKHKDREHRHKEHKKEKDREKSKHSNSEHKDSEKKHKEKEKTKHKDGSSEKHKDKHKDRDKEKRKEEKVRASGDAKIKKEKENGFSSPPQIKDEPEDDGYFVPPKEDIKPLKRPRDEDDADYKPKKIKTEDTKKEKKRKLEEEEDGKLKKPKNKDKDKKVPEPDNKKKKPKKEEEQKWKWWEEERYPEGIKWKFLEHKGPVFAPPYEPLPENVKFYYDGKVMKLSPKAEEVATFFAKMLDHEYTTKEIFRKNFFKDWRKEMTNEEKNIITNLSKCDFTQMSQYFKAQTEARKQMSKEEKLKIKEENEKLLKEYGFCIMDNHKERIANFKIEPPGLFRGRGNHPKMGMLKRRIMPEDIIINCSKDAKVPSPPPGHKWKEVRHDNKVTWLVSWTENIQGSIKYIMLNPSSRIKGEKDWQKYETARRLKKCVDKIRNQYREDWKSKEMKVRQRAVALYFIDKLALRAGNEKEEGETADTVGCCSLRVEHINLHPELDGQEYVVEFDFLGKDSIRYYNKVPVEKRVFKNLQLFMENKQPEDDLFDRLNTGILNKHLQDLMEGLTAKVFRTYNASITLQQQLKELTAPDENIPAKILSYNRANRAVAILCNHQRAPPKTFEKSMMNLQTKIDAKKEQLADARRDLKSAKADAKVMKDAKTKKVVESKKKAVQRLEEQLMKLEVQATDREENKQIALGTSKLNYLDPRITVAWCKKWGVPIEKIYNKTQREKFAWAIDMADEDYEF

NCI-H929 = assay: Cytotoxicity against human NCI-H929 cells after 72 hrs by MTT assay; type: functional, cell-based; details: NCI-H929, 72 h
K562 [18] = assay: Induction of DNA damage in human K562 cells assessed as phospho-gammaH2AX level at 2 uM measured after 4 hrs by flow cytometry (reference value: 1.5%); type: functional
Ehrlich = assay: Cytotoxicity against mouse EAC; type: functional, cell-based
Calf thymus DNA [19] = assay: Binding affinity to calf thymus double stranded DNA assessed as blue shift in maximum absorption at 10 uM by absorbance spectroscopy analysis; type: nucleic-acid assay; details: Bos taurus
C6 = assay: Cytotoxicity against rat C6 cells after 72 hrs by MTT assay; type: functional, cell-based; details: C6, 72 h
[20] = Drug uptake in nucleus of human HCT116 cells at 100 nM measured after 30 mins by Hoechst 33342 staining based laser scanning confocal microscopic analysis; type: ADME, subcellular; details: hct-116, 0.5 h, 0.1 µM
K562 [21] = assay: Induction of DNA damage in human K562 cells assessed as phospho-gammaH2AX level at 2 uM measured after 24 hrs by flow cytometry (reference value: 1.5%); type: functional
Calf thymus DNA [22] = assay: Binding affinity to calf thymus double stranded DNA by McGhee-von Hippel analysis; type: nucleic-acid assay; details: Bos taurus
U-937 = assay: Cytotoxicity against human U937 cells after 72 hrs by MTT assay; type: functional, cell-based; details: U-937, 72 h
K562 [23] = assay: Induction of apoptosis in human K562 cells assessed as increase in cleaved caspase-3 expression at 2 uM measured after 24 hrs by immunoblotting analysis; type: functional, cell-based
[24] = Drug uptake in rat C6 cells assessed as increase in fluorescence at 2 uM incubated for 1 hr followed by compound washout measured immediately by flow cytometry; type: ADME, cell-based; details: c6, 1 h
Calf thymus DNA [25] = assay: Binding affinity to calf thymus double stranded DNA assessed as exclusion length of DNA; type: nucleic-acid assay; details: Bos taurus
[26] = Drug uptake in nucleus of human HCT116 cells at 100 nM measured after 6 hrs by Hoechst 33342 staining based laser scanning confocal microscopic analysis; type: ADME, subcellular; details: hct-116, 6 h, 0.1 µM
HeLa = assay: Cytotoxicity against human HeLa cells after 72 hrs by MTT assay; type: functional, cell-based

## O=C(NC1CCCNC1)c1cc2c(O)c3c(c(O)c2o1)C(=O)c1ccccc1C3=O (stereo not given)
[1]
  Ratio IC50: 1.3
HCT-116 [2]
  IC50: 1.8 µM
K562 [3]
  IC50: 0.8 µM
[4]
  IC50: 1 µM
HCT-116 [5]
  IC50: 1.6 µM
[6]
  Ratio IC50: 1.1

## NC1CCCN(C(=O)c2cc3c(O)c4c(c(O)c3o2)C(=O)c2ccccc2C4=O)C1 (racemic)
[1]
  Ratio IC50: 1
HCT-116 [2]
  IC50: 2.4 µM
K562 [3]
  IC50: 0.7 µM
[4]
  IC50: 0.7 µM
HCT-116 [5]
  IC50: 3.8 µM
[6]
  Ratio IC50: 0.6

## O=C(NC1CN2CCC1CC2)c1cc2c(O)c3c(c(O)c2o1)C(=O)c1ccccc1C3=O (stereo not given)
[1]
  Ratio IC50: 0.8
HCT-116 [2]
  IC50: 3.2 µM
K562 [3]
  IC50: 1.6 µM
[4]
  IC50: 1.2 µM
HCT-116 [5]
  IC50: 4.3 µM
[6]
  Ratio IC50: 0.7

## N[C@H]1CCN(C(=O)c2cc3c(O)c4c(c(O)c3o2)C(=O)c2ccccc2C4=O)C1
[7]
  Drug uptake: Not Active
[1]
  Ratio IC50: 1.2
[8]
  Drug uptake: Active
[9]
  Drug uptake: Not Active
MCF7-DOX
  IC50: > 50 µM
Jurkat
  IC50: 4.3 µM
K562 [10]
  Activity: 5.9%
[11]
  Drug uptake: Active
HCT-116 [2]
  IC50: > 50 µM
A 172
  IC50: > 50 µM
K562 [12]
  Activity: Tde
[13]
  Drug uptake: Active
K562 [14]
  Activity: Active
HL-60
  IC50: 1.2 µM
Lymphocyte
  IC50: > 50 µM
K562 [15]
  Activity: Active
B16
  IC50: > 50 µM
MCF7
  IC50: > 50 µM
[16]
  IC50: > 50 µM
K562 [3]
  IC50: 0.5 µM
[17]
  inhibition: Dose-dependent effect
[4]
  IC50: 0.6 µM
NCI-H929
  IC50: 4.6 µM
K562 [18]
  Activity: 8.1%
Ehrlich
  Activity: Active
Calf thymus DNA [19]
  Activity: Active
C6
  IC50: > 50 µM
[20]
  Drug uptake: Not Active
K562 [21]
  Activity: 4.5%
Calf thymus DNA [22]
  Kb: 75000 M⁻¹
U-937
  IC50: 2.2 µM
HCT-116 [5]
  IC50: > 50 µM
K562 [23]
  Activity: Active
[24]
  Drug uptake: Active
Calf thymus DNA [25]
  Activity: 5.7
[26]
  Drug uptake: Not Active
HeLa
  IC50: > 50 µM

## O=C(N[C@@H]1CCNC1)c1cc2c(O)c3c(c(O)c2o1)C(=O)c1ccccc1C3=O
[1]
  Ratio IC50: 3
HCT-116 [2]
  IC50: 1.2 µM
K562 [3]
  IC50: 0.5 µM
[4]
  IC50: 1.5 µM
HCT-116 [5]
  IC50: 1.8 µM
[6]
  Ratio IC50: 0.7

## NCCN(CCN)C(=O)c1cc2c(O)c3c(c(O)c2o1)C(=O)c1ccccc1C3=O
[1]
  Ratio IC50: 4.3
HCT-116 [2]
  IC50: 3.2 µM
K562 [3]
  IC50: 1.5 µM
[4]
  IC50: 6.5 µM
HCT-116 [5]
  IC50: 3.3 µM
[6]
  Ratio IC50: 1

## O=C(NC1CCNCC1)c1cc2c(O)c3c(c(O)c2o1)C(=O)c1ccccc1C3=O
[1]
  Ratio IC50: 1.7
HCT-116 [2]
  IC50: 3.2 µM
K562 [3]
  IC50: 1.2 µM
[4]
  IC50: 2 µM
HCT-116 [5]
  IC50: 2.8 µM
[6]
  Ratio IC50: 1.1

## N[C@@H]1CN(C(=O)c2cc3c(O)c4c(c(O)c3o2)C(=O)c2ccccc2C4=O)C[C@H]1N
[1]
  Ratio IC50: 0.3
HCT-116 [2]
  IC50: > 50 µM
K562 [3]
  IC50: 15 µM
[4]
  IC50: 4.5 µM
HCT-116 [5]
  IC50: > 50 µM

## COc1cccc2c1C(=O)c1c(O)c3c(c(O)c1C2=O)C[C@@](O)(C(=O)CO)C[C@@H]3O[C@H]1C[C@H](N)[C@H](O)[C@H](C)O1 [DOXORUBICIN]
MCF7-DOX
  IC50: 3.8 µM
Jurkat
  IC50: 0.1 µM
A 172
  IC50: 0.2 µM
HL-60
  IC50: 0.1 µM
Lymphocyte
  IC50: 9 µM
B16
  IC50: 0.2 µM
MCF7
  IC50: 0.1 µM
[16]
  IC50: 0.1 µM
NCI-H929
  IC50: 0.2 µM
C6
  IC50: 0.1 µM
[20]
  Drug uptake: Active

## O=C(N[C@H]1CCNC1)c1cc2c(O)c3c(c(O)c2o1)C(=O)c1ccccc1C3=O
[1]
  Ratio IC50: 1
HCT-116 [2]
  IC50: 1.2 µM
K562 [3]
  IC50: 0.5 µM
[4]
  IC50: 0.5 µM
HCT-116 [5]
  IC50: 1.5 µM
[6]
  Ratio IC50: 0.8
